From patent publication US5736352A, “Method and apparatus for determination of the activity of cholesterol oxidase and method and apparatus for evaluation of the toxicity of chemical substances” (priority 1995, dated 1998)
Like-named read-outs stand apart in the source and are kept apart here.

System: cholesterol oxidase
Assay type: biochemical
Details: for effect of the chemical substance on the activity of the cholesterol oxidase (toxicity), curve compared with curve 22: 1 mU/ml cholesterol oxidase, pH 7.45
[1] = 10 micro-M substance, film 70 mol % L-α-dimyristylphosphatizircoline / 30 mol % cholesterol

Protocol: Any chemical substrance to be evaluated on the toxicity is previously dissolved or dispersed in the cholesterol oxidase solution 12. A monomolecule film is formed on a surface of the cholesterol oxidase solution 12 by use of a monomolecule film development solution including any phospholipid and any sterol. The surface pressure of the monomolecule film is measured to find a rate in the increase of the surface pressure of the monomolecule film. […] The reduction in the activity of the cholesterol oxidase results in a reduction in the increasing rate of the surface pressure of the monomolecule film. […] This means that the toxicitic chemical substance would be present in the cholesterol oxidase solution.
As a cholesterol oxidase solution 12, there was used a buffer solution including N-2-hydroxyethylpiperzane-N'-2-ethane sulfuric acid, where the ion strength is 0.1 and pH value is 7.45 as well as 1 mU/ml of the cholesterol oxidase is dissolved in the buffer solution. […] As a monomolecule film development solution 13, there was used a monomolecule film development solution comprising 70 mol % of L-α-dimyristylphosphatizircoline and 30 mol % of cholesterol.
The increasing rate of the surface pressure of the monomolecule film depends upon file cholesterol oxidase activity. As described above, the activity of the cholesterol oxidase depends upon the rate of increase in the surface pressure of the monomolecule film.

Compound	effect of the chemical substance on the activity of the cholesterol oxidase (toxicity), curve compared with curve 22 [1]	also measured
[Ca+2].[Cl-].[Cl-] [calcium chloride]	no toxicity	–
CC(=O)[O-].CC(=O)[O-].[Pb+2] [lead acetate]	reduces the activity of the cholesterol oxidase	Linear Differential Coefficient (rate of increase in the surface pressure of the monomolecule film) (Cholesterol Oxidase 1 mU/ml, Lead Acetate 10 μ Mol, film 70 mol % L-α-dimyristylphosphatizircoline / 30 mol % cholesterol, five minutes after film was prepared, curve 23 (curve 22 without substance: 5.5 × 10^-2)): 4.2 × 10^-2 mN/mmin.
[Cl][Hg][Cl] [mercury chloride]	–	effect of the chemical substance on the activity of the cholesterol oxidase (toxicity), curve compared with curve 22 (10 micro-M substance, film 70 mol % L-α-dipalmytylphosphatizircoline / 30 mol % dihydrocholesterol): reduces the activity of the cholesterol oxidase
CCCCCCCCCCCCOS(=O)(=O)[O-].[Na+] [sodium dodecylsulfate]	–	effect of the chemical substance on the activity of the cholesterol oxidase (toxicity), curve compared with curve 22 (1 micro-M substance, film 70 mol % L-α-di-palmytylphosphatizir-ethanol / 30 mol % pregnenolone): reduces the activity of the cholesterol oxidase
[Cl-].[Cl-].[Zn+2] [zinc chloride]	reduces the activity of the cholesterol oxidase	–
